The text below walks through data of PMC6274368 (Molecules, 2016).

SMILES strings stand for the structures. Bounds are passed on as bounds.

For series [1], the target named is T1, human URAT1 (Homo sapiens, UniProt Q96S37).
T1 sequence (Q96S37 1-553): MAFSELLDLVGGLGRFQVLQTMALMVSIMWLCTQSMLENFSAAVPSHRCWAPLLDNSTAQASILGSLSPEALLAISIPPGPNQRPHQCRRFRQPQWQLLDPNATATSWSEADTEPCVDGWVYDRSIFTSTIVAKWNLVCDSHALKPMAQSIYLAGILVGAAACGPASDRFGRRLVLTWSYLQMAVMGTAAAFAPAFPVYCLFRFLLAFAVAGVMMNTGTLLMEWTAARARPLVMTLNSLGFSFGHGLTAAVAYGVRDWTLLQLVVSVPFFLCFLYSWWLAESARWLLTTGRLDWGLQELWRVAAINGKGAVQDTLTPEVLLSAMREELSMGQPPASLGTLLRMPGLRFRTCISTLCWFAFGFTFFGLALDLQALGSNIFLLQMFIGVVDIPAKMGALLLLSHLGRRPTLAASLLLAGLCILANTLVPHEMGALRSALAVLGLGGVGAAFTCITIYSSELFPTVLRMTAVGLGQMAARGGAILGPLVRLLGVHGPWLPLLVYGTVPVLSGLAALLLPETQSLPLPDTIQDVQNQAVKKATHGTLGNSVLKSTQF
To be noted: for Fold more potent than parent lesinurad (URAT1 inhibition): ratio of IC50 vs lesinurad, in vitro URAT1 inhibitory assay.
Method: After 48 h, when the HEK293-URAT1 cells were grown to confluence, the cells were treated by 0.25% trypsin for 1–2 min. Thereafter, the digested cells were diluted to a density of 1.5 × 10^5/mL and inoculated into the 24-well cell culture plates for about 48 h. The HEK293-URAT1 cells were pre-incubated for 10 min in HBSS (Cl^− free) and then incubated in the uptake solution (PBS) containing 5 μM [8-^14C]uric acid (2 μCi/mL) with or without the tested compounds (at a series of concentrations). […] After that, 500 μL of cell lysis was transferred to scintillation vials and solubilized with scintillation solution. The radioactivity in the cells was measured by a liquid scintillation counter (PerkinElmer, Waltham, MA, USA).

Turning to `O=C([O-])CCc1nncn1-c1ccc(C2CC2)c2ccccc12.[Na+]` [Compound 1a, Sodium 3-(4-(4-cyclopropylnaphth-1-yl)-4H-1,2,4-triazol-3-yl)propionate], the melting point is 140 °C (dec.). The compound also came in with an IC50 in series [1] above 100 µM.
The corresponding values for `O=C([O-])CCc1nnc(Cl)n1-c1ccc(C2CC2)c2ccccc12.[Na+]` [Compound 1b, Sodium 3-(5-chloro-4-(4-cyclopropylnaphth-1-yl)-4H-1,2,4-triazol-3-yl)propionate] are 135 °C (dec.) and 6.3 ± 0.74 µM.
Turning to `O=C([O-])CCc1nnc(Br)n1-c1ccc(C2CC2)c2ccccc12.[Na+]` [Compound 1c, Sodium 3-(5-bromo-4-(4-cyclopropylnaphth-1-yl)-4H-1,2,4-triazol-3-yl)propionate], in series [1], inhibition was half-maximal at 2.4 ± 0.15 µM (IC50) and the “Fold more potent than parent lesinurad (URAT1 inhibition)” value is listed as “three”.
Take `O=C([O-])CCc1nnc(I)n1-c1ccc(C2CC2)c2ccccc12.[Na+]` [Compound 1d, Sodium 3-(4-(4-cyclopropylnaphth-1-yl)-5-iodo-4H-1,2,4-triazol-3-yl)propionate]: the melting point is 158 °C (dec.). The IC50 in series [1] was 8.8 ± 1 µM.
For `COc1nnc(CCC(=O)[O-])n1-c1ccc(C2CC2)c2ccccc12.[Na+]` [Compound 1e, Sodium 3-(4-(4-cyclopropylnaphth-1-yl)-5-methoxy-4H-1,2,4-triazol-3-yl)propionate], the melting point was 133 °C (dec.). This compound also yielded an IC50 in series [1] above 100 µM.
The corresponding values for `CCOc1nnc(CCC(=O)[O-])n1-c1ccc(C2CC2)c2ccccc12.[Na+]` [Compound 1f, Sodium 3-(4-(4-cyclopropylnaphth-1-yl)-5-ethoxy-4H-1,2,4-triazol-3-yl)propionate] are 101.5 °C (dec.) and 9.1 ± 1.2 µM.
Compound `O=C([O-])CCc1nnc(Br)n1-c1cccc2ccccc12.[Na+]` [Compound 1g, Sodium 3-(5-bromo-4-(naphth-1-yl)-4H-1,2,4-triazol-3-yl)propionate] gave a melting point of 182 to 184 °C. In series [1], the 50% inhibitory concentration (IC50) amounted to 10.5 ± 1.4 µM.
Regarding `Cc1ccc(-n2c(Br)nnc2CCC(=O)[O-])c2ccccc12.[Na+]` [Compound 1h, Sodium 3-(5-bromo-4-(4-methylnaphth-1-yl)-4H-1,2,4-triazol-3-yl)propionate], the melting point was 155 °C (dec.). The IC50 in series [1] is 12.6 ± 1.6 µM.
In the same order, the values of `CCc1ccc(-n2c(Br)nnc2CCC(=O)[O-])c2ccccc12.[Na+]` [Compound 1i, Sodium 3-(5-bromo-4-(4-ethylnaphth-1-yl)-4H-1,2,4-triazol-3-yl)propionate] are 198 °C (dec.) and 8.4 ± 0.98 µM.
In the same order, the values of `CCCc1ccc(-n2c(Br)nnc2CCC(=O)[O-])c2ccccc12.[Na+]` [Compound 1j, Sodium 3-(5-bromo-4-(4-n-propylnaphth-1-yl)-4H-1,2,4-triazol-3-yl)propionate] are 183 °C (dec.) and 8.3 ± 1.1 µM.
With `CC(C)c1ccc(-n2c(Br)nnc2CCC(=O)[O-])c2ccccc12.[Na+]` [Compound 1k, Sodium 3-(5-bromo-4-(4-isopropylnaphth-1-yl)-4H-1,2,4-triazol-3-yl)propionate], the melting point is 194 °C (dec.). The compound also came in with an IC50 in series [1] of 1.1 ± 0.21 µM.
In the same order, the values of `COc1ccc(-n2c(Br)nnc2CCC(=O)[O-])c2ccccc12.[Na+]` [Compound 1l, Sodium 3-(5-bromo-4-(4-methoxynaphth-1-yl)-4H-1,2,4-triazol-3-yl)propionate] are 211 °C (dec.) and 36.6 ± 5.3 µM.
The corresponding values for `CCOc1ccc(-n2c(Br)nnc2CCC(=O)[O-])c2ccccc12.[Na+]` [Compound 1m, Sodium 3-(5-bromo-4-(4-ethoxynaphth-1-yl)-4H-1,2,4-triazol-3-yl)propionate] are 194 °C (dec.) and 11.2 ± 1.3 µM.
The corresponding values for `O=C([O-])CCc1nnc(Br)n1-c1ccc(Br)c2ccccc12.[Na+]` [Compound 1n, Sodium 3-(5-bromo-4-(4-bromonaphth-1-yl)-4H-1,2,4-triazol-3-yl)propionate] are 204 °C (dec.) and 0.85 ± 0.12 µM.
Consider `O=C(O)CCc1nnc(Br)n1Cc1ccc(Br)c2ccccc12` [Compound 1o, Sodium 3-(5-bromo-4-((4-bromonaphth-1-yl)methyl)-4H-1,2,4-triazol-3-yl)propionate], for which, in series [1], the 50% inhibitory concentration (IC50) turned out to be 0.61 ± 0.07 µM.
`O=C([O-])CCc1nnc(Br)n1CCc1ccc(Br)c2ccccc12.[Na+]` [Compound 1p, Sodium 3-(5-bromo-4-(2-(4-bromonaphth-1-yl)ethyl)-4H-1,2,4-triazol-3-yl)propionate]: the melting point is 167 °C (dec.). Besides, the IC50 in series [1] is 34.7 ± 4.9 µM.
For `O=C([O-])CCCc1nnc(Br)n1Cc1ccc(Br)c2ccccc12.[Na+]` [Compound 1q, Sodium 4-(5-bromo-4-((4-bromonaphth-1-yl)methyl)-4H-1,2,4-triazol-3-yl)butanoate], in series [1], the midpoint of inhibition, the IC50, lay at 0.23 ± 0.05 µM and the “Fold more potent than parent lesinurad (URAT1 inhibition)” value amounted to 31 fold.
On to `O=C([O-])CCCCc1nnc(Br)n1Cc1ccc(Br)c2ccccc12.[Na+]` [Compound 1r, Sodium 5-(5-bromo-4-((4-bromonaphth-1-yl)methyl)-4H-1,2,4-triazol-3-yl)pentanoate], for which the melting point was in the range of 146 to 149 °C. The compound also yielded an IC50 in series [1] of 1.24 ± 0.17 µM.
